In patent US4414226A, “1,4-Naphtoquinone derivatives and their use in treating coccidiosis” (Fujisawa Pharmaceutical Co., Ltd., priority 1980, dated 1983):

Assays:
[1] = Solubility; type: physicochemical
[2] = Stability; type: physicochemical
[3] = tested on: Eimeria tenella; experiment: coccidium infection and treatment test in the chicken (Test example 1, Table 1); type: in vivo, Eimeria tenella; male white Leghorn chickens; parameters: Lesion score: scale not given here; conditions: for Lesion score: 3 times a day for 3 days, cecal lesions; for Weight gain index: noninfected group = 100
Protocol: (1) A coccidium infection and treatment test in the chicken
Male white Leghorn chickens, aged 2 weeks and with a mean body weight of 100 g, were treated with two representative examples of product compound (I) and Monensin, a control drug, at the various dose levels indicated in Table 1. Each compound and drug was suspended in a 1% aqueous solution of gum arabic and 2 ml per dose of the suspension was administered 3 times a day for 3 consecutive days. Birds in the untreated control groups were given 2 ml per dose of a 1% aqueous solution of gum arabic only in otherwise the same manner.
Immediately after the first dosing, birds in the infected groups were orally inoculated with 3.0×10^4 /bird of oocysts of Eimeria tenella. Body weights were taken at the first treatment and on the 3rd day after the entire course of treatment to investigate changes in body weight. Immediately after the second taking of body weights, the birds were terminated and autopsied to examine and score the cecal lesions.
Dosage: The total dose (mg) given to each bird during the test period.
Weight gain index: These indices were computed with the body weight gain
of birds in the noninfected group being taken as 100.
Three birds were assigned to each of the infected-non-treated groups, non-infected groups, the monencin group and the (Ia-A) groups, and the weight gain indices were computed from the mean body weight values for 3 birds. The (Ia-B) groups each consisted of a bird only.

[4] = 30 minutes in 50° C. solution at pH 2
[5] = 30 minutes in 50° C. solution at pH 10
[6] = total dose 40 mg per bird, oral

Solubility ([1]; acetone) | Solubility ([1]; ethanol) | Solubility ([1]; ethyl acetate) | Solubility ([1]; hexane) | Solubility ([1]; methanol) | Solubility ([1]; water) | Stability [2, 4] | Stability [2, 5] | Solubility ([1]; chloroform) | Compound | Lesion score ([3]; total dose 2.5 mg per bird) | Weight gain index ([3]; total dose 2.5 mg per bird) | Lesion score ([3]; total dose 5 mg per bird) | Weight gain index ([3]; total dose 5 mg per bird) | Lesion score ([3]; total dose 10 mg per bird) | Weight gain index ([3]; total dose 10 mg per bird) | Lesion score ([3]; total dose 20 mg per bird) | Weight gain index ([3]; total dose 20 mg per bird) | Lesion score [3, 6] | Weight gain index ([3]; total dose 40 mg per bird) | Lesion score ([3]; total dose 1.25 mg per bird) | further results
Partially soluble | Readily soluble | Partially soluble | Insoluble | Readily soluble | Insoluble | Stable | Stable | – | COc1cc(C)cc(C(=O)O)c1C1=C(O)C(=O)c2c(O)cccc2C1=O [(Ia-C), 2-(3,5-dihydroxy-1,4-naphthoquinon-2-yl)-3-methoxy-5-methylbenzoic acid] | – | – | – | – | – | – | – | – | – | – | – | Solubility ([1]; ether): Insoluble
Readily soluble | Readily soluble | Readily soluble | Insoluble | Readily soluble | Insoluble | Stable | Stable | Readily soluble | COc1cc(C)cc(C(=O)O)c1C1=CC(=O)c2c(O)cccc2C1=O [(Ia-B), 2-(5-hydroxy-1,4-naphthoquinon-2-yl)-3-methoxy-5-methylbenzoic acid] | 3 | 68 | 0 | 80 | 0 | 95 | 0 | 90 | 0 | 102 | – | Solubility ([1]; benzene): Insoluble
– | – | – | – | – | – | – | – | – | CC[C@@]1([C@@H]2O[C@@H]([C@H]3O[C@@](O)(CO)[C@H](C)C[C@@H]3C)C[C@@H]2C)CC[C@H]([C@]2(C)CC[C@]3(C[C@H](O)[C@@H](C)[C@@H]([C@@H](C)[C@@H](OC)[C@H](C)C(=O)O)O3)O2)O1 [Monensin, reference compound] | 2.7 | 92 | 2.3 | 98 | 0 | 68 | 0 | 51 | 0 | 41 | 4.0 | Weight gain index ([3]; total dose 1.25 mg per bird): 99
Sparingly soluble | Sparingly soluble | – | – | Sparingly soluble | Insoluble | – | – | Sparingly soluble | COc1cc(C)cc2c(=O)oc3c(c12)C(=O)c1cccc(O)c1C3=O [(Ia-A), 8-hydroxy-1-methoxy-3-methyl-7,12-dihydro-5H-benzo[d]naphtho[2,3-b]pyran-5,7,12-trione] | 2.0 | 92 | 0.3 | 97 | 0 | 106 | 0 | 108 | 0 | 95 | 2.0 | Weight gain index ([3]; total dose 1.25 mg per bird): 108; Solubility ([1]; dimethyl sulfoxide): Partially soluble; Solubility ([1]; tetrahydrofuran): Partially soluble; Stability ([2]; acid solutions): Instable; Stability ([2]; alkaline solutions): Instable
